Measured values taken from PMC10672241, “New Cyclopiane Diterpenes and Polyketide Derivatives from Marine Sediment-Derived Fungus Penicillium antarcticum KMM 4670 and Their Biological Activities” (Marine Drugs, 2023).
Read-outs that look alike come from different tables or passages of the source.

Key:
[1] = system: Escherichia coli VKPM (B-7935); assay: Antimicrobial activity: E. coli growth (OD620, 96-well broth); assay type: cell-based
Experimental: (§1) The yeast-like fungi of Candida albicans KMM 455 and bacterial strains Staphylococcus aureus ATCC 21027 and Escherichia coli VKPM (B-7935) (Collection of Marine Microorganisms PIBOC FEB RAS) were cultured on solid medium Mueller Hinton broth with agar (16.0 g/L) in a Petri dish at 37 °C for 24 h.
(§2) The assays were performed in 96-well microplates in appropriate Mueller Hinton broth. Each well contained 90 µL of bacterial or of yeast-like fungi suspension (10^9 CFU/mL). Then, 10 µL of a compound diluted at concentrations from 1.5 µM to 100.0 µM using two-fold dilution were added (DMSO concentration <1%). Culture plates were incubated for 18 h at 37 °C, and the OD620 was measured using a Multiskan FS spectrophotometer (Thermo Scientific Inc., Beverly, MA, USA). The antibiotic gentamicin and the antifungal agent nitrofungin were used as positive controls at 1 mg/mL; 1% DMSO in PBS served as a negative control.

[2] = system: Candida albicans KMM 455; assay: Antimicrobial activity: C. albicans growth (OD620, 96-well broth); assay type: cell-based; settings: for inhibition at 12.5 µM: KMM455, 12.5 µM
Experimental: as §1, §2

[3] = system: H9c2 cardiomyocytes; assay: H9c2 cell viability (MTT) assay; assay type: cell-based, rat; settings: for toxicity toward normal cardiomyocytes: at the concentrations in which they affected the growth of microorganisms; for Cell Viability: 24 h, MTT
Experimental: (§3) The rat cardiomyocytes H9c2 cells were kindly provided by Prof. Dr. Gunhild von Amsberg from Martini-Klinik Prostate Cancer Center, University Hospital Hamburg-Eppendorf, Hamburg, Germany.
(§4) The H9c2 cells were cultured in DMEM medium (Biolot, St. Petersburg, Russia) containing 10% fetal bovine serum (Biolot, St. Petersburg, Russia) and 1% penicillin/streptomycin (Biolot, St. Petersburg, Russia) at 37 °C in a humidified atmosphere with 5% (v/v) CO2.
(§5) The H9c2 cells were seeded at concentrations of 3 × 10^3 cell/well, and the experiments were started after 24 h. The compounds at concentrations up to 100 µM were added into the wells for 24 h, and the viability of the cells was measured with an MTT (3-(4,5-dimethylthiazol-2-yl)-2,5-diphenyltetrazolium bromide) assay, which was performed according to the manufacturer’s instructions (Sigma-Aldrich, Munich, Germany). All compounds were dissolved with DMSO so that the final concentration of DMSO in the cell culture was not more than 1%. Moreover, DMSO was used as a control. The results were presented as a percent of the control data and calculated IC50.

[4] = H9c2 cell viability (MTT) assay; assay type: cell-based, rat; settings: rat, H9c2 cardiomyocytes, 24 h, MTT
Experimental: as §3, §4, §5

[5] = system: Staphylococcus aureus ATCC 21027; assay: Antimicrobial activity: S. aureus growth (OD620, 96-well broth); assay type: cell-based; settings: for inhibition at 12.5 µM / inhibition at 100 µM: Staphylococcus aureus; for inhibition at 12.5 µM: ATCC21027, 12.5 µM; for inhibition at 100 µM: ATCC21027, 100 µM
Experimental: as §1, §2

[6] = system: C. albicans biofilm formation; assay: Crystal violet biofilm formation assay, C. albicans; assay type: cell-based, Candida albicans; settings: for inhibition of C. albicans biofilm formation: concentrations from 12.5 to 100 µM
Experimental: (§6) The inhibition reducing biofilm formation and growth was assessed using the crystal violet biofilm assay as described. Overnight cultures of bacteria S. aureus and E. coli and yeast-like fungi C. albicans were inoculated into Mueller–Hinton broth at a concentration of 10^9 CFU/mL. A total of 90µL of this cell suspension was then dispensed into 96-well microtiter plates containing 10 µL of different concentrations of compounds 1–6. After 24 h growth at 37 °C, the plates were washed with PBS to remove unbound cells. Next, the wells were stained with 0.1% crystal violet solution for 10 min at 37 °C. At the completion of the incubation, plates were washed 3 times with PBS and dried. Then, the crystal violet dye from the biofilm was solubilized with 100 µL of ethanol. A total of 100 µL of this solution was then moved to a new microtiter plate for absorbance measurement at λ = 570 nm. The results were reported as percent inhibition normalized to the wild-type control.

[7] = system: S. aureus biofilm formation; assay: Crystal violet biofilm formation assay, S. aureus; assay type: cell-based, Staphylococcus aureus; settings: for prevention of the biofilm formation of S. aureus: concentration not given; for IC50: Staphylococcus aureus, read-out: half-maximal concentration (IC50) of the biofilm formation inhibition
Experimental: as §6

[8] = target: T1, sortase A from S. aureus (Staphylococcus aureus, UniProt Q2FV99); assay: Sortase A activity inhibition assay (SensoLyte 520 kit, cell-free); assay type: biochemical; settings: for inhibition at 50 µM: read-out: inhibition of sortase A activity, 50 µM, after 10 min of incubation; for inhibition of sortase A activity: 50 µM, after 10 min of incubation
T1 construct: purchased AnaSpec AS-72229
Experimental: The enzymatic activity of sortase A from S. aureus was determined using SensoLyte 520 Sortase A Activity Assay Kit Fluorimetric (AnaSpec AS-72229, AnaSpec, San Jose, CA, USA) in accordance with the manufacturer’s instructions. […] DMSO at a concentration of 0.8% was used as a control. 4-(Hydroxymercuri)benzoic acid (PCMB) was used as sortase A enzyme activity inhibitor. Fluorescence was measured with a plate reader PHERAStar FS (BMG Labtech, Offenburg, Germany) for 60 min, with a time interval of 5 min. The data were processed with MARS Data Analysis v. 3.01R2 (BMG Labtech, Offenburg, Germany). The results were presented as relative fluorescent units (RFUs) and percentage of the control data, calculated using STATISTICA 10.0 software.

[9] = system: E. coli biofilm formation; assay: Crystal violet biofilm formation assay, E. coli; assay type: cell-based, Escherichia coli
Experimental: as §6

[10] = system: Staphylococcus aureus; design: method as in PMID 31226283; settings: bacterial suspension 10^6 CFU per milliliter; cited from earlier work
[11] = system: Escherichia coli; design: method as in PMID 31226283; settings: bacterial suspension 10^6 CFU per milliliter; cited from earlier work
[12] = system: Staphylococcus aureus; assay: Literature antibacterial activity against Staphylococcus aureus; assay type: cell-based; settings: calculated from 100 μg/mL
[13] = system: Escherichia coli; assay: Literature antibacterial activity against Escherichia coli; assay type: cell-based; settings: calculated from 50 μg/mL
[14] = in vivo assay; cited from earlier work
[15] = concentrations from 12.5 to 100 µM

T1 sequence (Q2FV99 whole entry): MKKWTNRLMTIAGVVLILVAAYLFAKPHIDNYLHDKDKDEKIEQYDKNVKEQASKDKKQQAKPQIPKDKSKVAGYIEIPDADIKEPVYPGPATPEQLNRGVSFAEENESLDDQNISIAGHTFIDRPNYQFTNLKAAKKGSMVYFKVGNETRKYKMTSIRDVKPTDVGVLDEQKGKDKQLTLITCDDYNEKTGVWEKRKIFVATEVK

Row | Compound | inhibition at 12.5 µM ([1]; Escherichia coli, 12.5 µM) [%] | inhibition at 100 µM ([1]; Escherichia coli, 100 µM) [%] | inhibition of C. albicans growth [2, 15] | viability at 24 h, 1 µM [4] [%] | viability at 24 h, 10 µM [4] [%] | viability at 24 h, 100 µM [4] [%] | inhibition at 12.5 µM [5] [%] | inhibition at 100 µM [5] [%] | inhibition of C. albicans biofilm formation [6] | inhibition at 50 µM [8] [%] | prevention of S. aureus biofilm formation ([7]; 100 µM) [%] | inhibition of S. aureus growth ([5]; 12.5 µM) | further results
1 | C[C@H]1CCC[C@H](CC(=O)O)O1 [Compound 6, 2-((2R,6S)-6-methyltetrahydro-2H-pyran-2-yl)acetic acid] | 27.7 | 56.9 | 34.7-52.1% | 98.1 ± 1.6 | 80.9 ± 2.9 | 54.6 ± 2.1 | 25.6 | 46.5 | 14.7–23.1% | 16.8 | – | – | IC50 ([1]; Escherichia coli, read-out: IC50 of E. coli growth inhibition): 84.9 µM; IC50 ([2]; Candida albicans, KMM455): 89.9 µM; toxicity toward normal cardiomyocytes [3]: significant toxicity; effect on biofilm formation by C. albicans (in words) [6]: affected the biofilm formation; prevention of the biofilm formation of S. aureus [7]: 30–40%
2 | CC12CC(=O)C(C)(C)C1C1CCC3(C)C(=O)C=CC(C)(O)C13C2 (stereo not shown) [Compound 1, 4-hydroxyleptosphin C] | – | 35.9 | – | 94.8 ± 5.9 | 65.7 ± 9.4 | 63.2 ± 0.5 | 15.3 | 29.3 | – | 28.2 | 34.5 | – | inhibition of E. coli growth ([1]; 12.5 µM): not observed; inhibition at 12.5 µM ([2]; Candida albicans): 30.4%; decrease in H9c2 cell viability ([3]; 10 µM): ~30%; decrease of H9c2 viability ([3]; 100 µM): ~30%; prevention of S. aureus biofilm formation ([7]; 12.5 µM): 15.9%
3 | CC1C=CC(=O)C2(C)CCC3C4C(C)(CC(O)C4(C)C)CC132 (stereo not drawn) [Compound 2, 13-epi-conidiogenone F] | – | 27.3 | – | 98.1 ± 1.9 | 107 ± 7.8 | – | – | 19.1 | – | – | 52.6 | no effect | inhibition of E. coli growth ([1]; 12.5 µM): not observed; inhibition at 12.5 µM ([2]; Candida albicans): 27.9%; decrease of H9c2 viability ([3]; 100 µM): ~30%; Cell Viability ([3]; 100 µM): 67.3 ± 3.1%; prevention of S. aureus biofilm formation ([7]; 12.5 µM): 37.9%; IC50 [7]: 76.1 µM; inhibition of sortase A activity [8]: 36.9%
4 | CC1C=CC(=O)C2(C)CCC3C4C(C)(CC(=O)C4(C)C)CC132 (stereo not shown) [Compound 4, leptosphin C] | 7.2 | 41.7 | 38.7–44.8% | 107 ± 2.9 | 102 ± 4.6 | 92.3 ± 1.9 | 10.3 | 42.4 | 30.6–36.4% | 20 | 54.5 | – | effect on biofilm formation of E. coli (in words) [9]: affect the biofilm formation; prevention of E. coli biofilm formation ([9]; concentrations of 25–100 µM): 30–40%; effect on biofilm formation by C. albicans (in words) [6]: affected the biofilm formation; concentration of antibacterial activity against Staphylococcus aureus [10]: 100 µg/mL; concentration of antibacterial activity against Escherichia coli [11]: > 100 µg/mL; IC50 ([7]; S. aureus biofilm): 85.5 µM; concentration at which activity was recorded (S. aureus) [12]: 333 µM
5 | CC1C=CC(=O)C2(C)CCC3C4C(C)(CC(O)C4(C)C)CC132 (stereo not shown) [Compound 3, conidiogenone F] | 24.3 | – | – | – | – | – | – | – | – | – | – | did not influence | inhibition of E. coli growth ([1]; 100 µM): 36.4%; inhibition of C. albicans growth ([2]; 12.5 µM): 26.5%; Cell Viability ([3]; 1 µM): 103.3 ± 3.2%; Cell Viability ([3]; 10 µM): 92.9 ± 2.5%; Cell Viability ([3]; 100 µM): 109.7 ± 9.2%; inhibition of S. aureus growth ([5]; 100 µM): 17.6%; concentration of antibacterial activity against Staphylococcus aureus [10]: > 100 µg/mL; concentration of antibacterial activity against Escherichia coli [11]: 50 µg/mL; prevention of S. aureus biofilm formation ([7]; only at concentrations of 50 µM and 100 µM): 10–15%; inhibition of sortase A activity [8]: 13.1%; concentration at which activity was recorded (E. coli) [13]: 166 µM
6 | C[C@H]1CCC[C@H](C[C@H]2Cc3cc(O)cc(O)c3C(=O)O2)O1 [Compound 7, cladosporin] | – | – | – | – | – | – | – | – | – | – | – | – | clearance rate in the body [14]: high; oral bioavailability [14]: poor
7 | C[C@H]1CCC[C@H](C[C@@H](O)CC(=O)O)O1 [Compound 5, antaketide A] | 12.5 | 40.9 | 36.2–48.4% | 94.4 ± 3.1 | 88.5 ± 3.1 | 74.1 ± 4.9 | – | 48.5 | did not affect | 25.5 | – | did not show any influence | effect on biofilm formation of E. coli (in words) [9]: affect the biofilm formation; prevention of E. coli biofilm formation ([9]; concentrations of 12.5–100 µM, respectively): 21–45%; toxicity toward normal cardiomyocytes [3]: significant toxicity; prevention of the biofilm formation of S. aureus [7]: 30–40%
